Patent US11180811B2, “Molecular signatures of conditions associated with longevity” (The Brigham and Women's Hospital, Inc., priority 2014, dated 2021)

Key:
[1] = test system: Liver longevity gene expression signature; experiment: Compounds that shift gene expression in the direction of longevity (Table 6), liver
Excerpt: (§1) The methods, assays, and systems described herein can be useful in a number of areas, including the discovery and validation of new targets for reducing rate of aging, extending lifespan, reducing incidence and delaying onset of disease and improving overall health of aging populations. Furthermore, the invention can facilitate the discovery and development of drugs, biologicals and treatment regimens based on the above that favorably intervene in the aging process. For example, the gene expression signatures described herein can be used to choose target gene products in a therapeutic protocol, to elaborate the biological function of the target gene product in the aging process, and to identify compounds that alleviate deterioration associated with aging by modulating the activity of target gene products. For example, several compounds that shift gene expression in the direction of longevity have been identified or validated using the assays or methods described herein (Table 6).
(§2) In Table 6, several compounds that shift gene expression in the direction of longevity have been identified or validated.

mice = conditions: elevated growth hormone treatment during development (Panici et al., 2010); cited from earlier work
[2] = test system: Kidney longevity gene expression signature; experiment: Compounds that shift gene expression in the direction of longevity (Table 6), kidney
Excerpt: as §1, §2

[3] = test system: Brain longevity gene expression signature; experiment: Compounds that shift gene expression in the direction of longevity (Table 6), brain
Excerpt: as §1, §2

Row | Compound | Direction of lifespan associated with the compound's shift of gene expression (Increased lifespan / Decreased lifespan) [1] | Direction of lifespan associated with the compound's shift of gene expression (Increased lifespan / Decreased lifespan) [3] | also measured
1 | C[C@H]1O[C@@H](O[C@H]2CC[C@]3(C=O)[C@H]4CC[C@]5(C)[C@@H](C6=CC(=O)OC6)CC[C@]5(O)[C@@H]4CC[C@]3(O)C2)C[C@H](O)[C@@H]1O [Helveticoside] | Increased | – | –
2 | C[C@@H]1C[C@H]2O[C@@H]2/C=C\C=C\C(=O)Cc2c(Cl)c(O)cc(O)c2C(=O)O1 [Monorden] | Decreased | – | –
3 | Oc1ccc(C=Cc2cc(O)cc(O)c2)cc1 [Resveratrol] | Increased | – | –
4 | growth hormone | – | – | Effect on lifespan (mice): shortens lifespan
5 | O[C@H]1[C@H]2c3cc4c(cc3CN3CCC(=C[C@@H]1O)[C@H]23)OCO4 [Lycorine] | – | – | Direction of lifespan associated with the compound's shift of gene expression (Increased lifespan / Decreased lifespan) [2]: Decreased
6 | CCCCC/C=C/C=C1/C(=O)C=C[C@@H]1C/C=C\CCCC(=O)O [15Δ prostaglandin J2] | Decreased | Decreased | Direction of lifespan associated with the compound's shift of gene expression (Increased lifespan / Decreased lifespan) [2]: Decreased
7 | CCc1c2c(nc3ccc(OC(=O)N4CCC(N5CCCCC5)CC4)cc13)-c1cc3c(c(=O)n1C2)COC(=O)[C@]3(O)CC [Irinotecan] | – | Increased | Direction of lifespan associated with the compound's shift of gene expression (Increased lifespan / Decreased lifespan) [2]: Increased
8 | NC12CC3CC(CC(C3)C1)C2 [Amantadine] | – | Increased | –
9 | CN(C)CCOC(C)(c1ccccc1)c1ccccn1 (centres unmarked) [Doxylamine] | Decreased | – | –
10 | Artemizole | Increased | – | –
11 | CO[C@H]1/C=C\C=C(/C)C(=O)NC2=CC(=O)C(NCCN(C)C)=C(C[C@@H](C)C[C@H](OC)[C@H](O)[C@@H](C)/C=C(\C)[C@@H]1OC(N)=O)C2=O [Alvespimycin] | – | Decreased | –
